According to patent US20050260136A1, “Topical immune competency diagnostic compositions and methods of use” (priority 2004, published 2005):

Columns and labels:
[1] = test system: HIV sero-positive AIDS patients; experiment: Side effects of the topical treatments in the 28-day clinical trial; assay type: in vivo, human; conditions: 28-day study
Procedure: (§1) For the examples, HIV sero-positive AIDS patients were tested based on HIV sero-positivity for a 28-day observational clinical trial. 40 subjects completed the study. Topical 0.1 ml applications of 0.4%, 0.2%, 0.1%, 0.05% Diphenylcyclopropenone in a proprietary anhydrous skin penetrating vehicle plus the vehicle placebo were made to the inner aspect of the forearms of patients and covered with a 1 inch adhesive bandage. Skin reactivity scores of a 4-point scaled based on induration and erythema were recorded weekly, as were side effects to the topical treatments.
Subjects with CD4 counts less than 300 cu/mm were non-skin reactive. This was found in 36 of the 40 subjects. […] Statistical Sensitivity was 87.4% and Specificity was 100% with the 0.4% Topical Diphenylcyclopropenone Solution selected as the optimal dosage concentration. […] None of the subjects withdrew because of side effects.

[2] = test system: HIV sero-positive AIDS patients; experiment: Topical DPC skin reaction test (Reactors/Non-Reactors) in a 28-day observational clinical trial; assay type: in vivo, human; conditions: for # Non-Reactor Patients / # Non-Reactor Patients (%) / # Reactor Patients / # Reactor Patients (%): right forearm
Procedure: as §1
For the examples, skin reaction scores were assigned using the following scale:
For the examples, patients having a skin reaction score of +2, +3 and +4 were considered to have a positive response and are labeled as “Reactors”; patients having a skin reaction score of 0 and +1 were considered to not have a response and are labeled as “Non-Reactors”.
Skin Reactions Scores as indicators of immune function responses following single applications of 0.4%, 0.2%, 0.1% and 0.05% DPC compositions were used to distinguish between patients with T Cell CD4 blood counts less than 300 per cu/mm and patients with T Cell CD4 counts higher than 300 per cu/mm.

[3] = 0.05% DPC applied, patients with CD4 <300 cu/mm
[4] = 0.05% DPC applied, patients with CD4 >300 cu/mm
[5] = 0.1% DPC applied, patients with CD4 <300 cu/mm
[6] = 0.1% DPC applied, patients with CD4 >300 cu/mm
[7] = 0.2% DPC applied, patients with CD4 <300 cu/mm
[8] = 0.2% DPC applied, patients with CD4 >300 cu/mm
[9] = 0.4% DPC applied, patients with CD4 <300 cu/mm
[10] = 0.4% DPC applied, patients with CD4 >300 cu/mm
[11] = combined 0.1% + 0.05% DPC dosages, patients with CD4 <300 cu/mm
[12] = combined 00.1% + 0.05% DPC dosages, patients with CD4 >300 cu/mm
[13] = combined 0.4% + 0.2% DPC dosages, patients with CD4 <300 cu/mm
[14] = combined 0.4% + 0.2% DPC dosages, patients with CD4 >300 cu/mm

O=c1c(-c2ccccc2)c1-c1ccccc1 [DPC, Diphenylcyclopropenone]
subjects who withdrew because of side effects ([1]; 40 subjects): None | Side effects ([1]; topical 0.1 ml applications of 0.05-0.4% DPC): minimal and were limited to adenopathies that were self-limited and disappeared upon completion of the study | # Non-Reactor Patients [2, 3]: 2 | # Non-Reactor Patients (%) [2, 3]: 100% | # Reactor Patients [2, 3]: 0 (0%) | # Reactor Patients (%) [2, 3]: 0 (0%) | # Non-Reactor Patients [2, 4]: 8 | # Non-Reactor Patients (%) [2, 4]: 100% | # Reactor Patients [2, 4]: 0 (0%) | # Reactor Patients (%) [2, 4]: 0 (0%) | # Non-Reactor Patients [2, 5]: 2 | # Non-Reactor Patients (%) [2, 5]: 100% | # Reactor Patients [2, 5]: 0 (0%) | # Reactor Patients (%) [2, 5]: 0 (0%) | # Non-Reactor Patients [2, 6]: 4 | # Non-Reactor Patients (%) [2, 6]: 80% | # Reactor Patients [2, 6]: 1 | # Reactor Patients (%) [2, 6]: 20% | # Non-Reactor Patients [2, 7]: 2 | # Non-Reactor Patients (%) [2, 7]: 40% | # Reactor Patients (%) [2, 7]: 60% | # Non-Reactor Patients (%) [2, 8]: 28.6% | # Reactor Patients [2, 8]: 5 | # Reactor Patients (%) [2, 8]: 71.4% | # Non-Reactor Patients (%) [2, 9]: 100% | # Reactor Patients (%) [2, 9]: 0 (0%) | # Non-Reactor Patients ([2]; 0.4% DPC applied, patients with CD4 <300 cu/mm, Non-Reactor = score 0 or +1): 4 | # Non-Reactor Patients (%) [2, 10]: 14.3% | # Reactor Patients [2, 10]: 6 | # Reactor Patients (%) [2, 10]: 85.7% | subjects in whom skin reactivity agreed with CD4 count (>300 cu/mm reactive, <300 cu/mm non-skin reactive) ([2]; all 40 subjects of the study): 36 of the 40 | Non-Reactors [2, 11]: 4 | Non-Reactors (%) [2, 11]: 100% | Reactors [2, 11]: 0 (0%) | Reactors (%) [2, 11]: 0 (0%) | Non-Reactors [2, 12]: 12 | Non-Reactors (%) [2, 12]: 92.3% | Reactors [2, 12]: 1 | Reactors (%) [2, 12]: 7.7% | Non-Reactors [2, 13]: 6 | Non-Reactors (%) [2, 13]: 67% | Reactors [2, 13]: 3 | Reactors (%) [2, 13]: 33% | Non-Reactors [2, 14]: 3 | Non-Reactors (%) [2, 14]: 21.4% | Reactors [2, 14]: 11 | Reactors (%) [2, 14]: 78.6%
